# Test results as given in patent US11819503B2 (priority 2019, dated 2023).
# Where “and” joins values, the source holds several entries; their conditions need not be identical. Identical values can stand only once. Entries after “also recorded” stand apart in the source; their conditions may differ.
# Assays:
# C. immitis [1] = system: C. immitis; parameters: species or system ICR mice; conditions: mouse, in vivo
# C. immitis [2] = system: C. immitis; parameters: species or system ICR mice; conditions: mouse, in vivo; remark: listed apart in the source
# [3] = system: C. immitis (isolate UTHSCSA DI17-143); experiment: microbe, parasite or virus in culture; assay type: cell-based; conditions: Coccidioides immitis
# C. immitis [4] = system: C. immitis; parameters: species or system ICR mice; conditions: mouse, in vivo; remark: listed apart in the source
# in vivo = conditions: mouse; for AUC(0-t): AUC 0-12
# [5] = target: recombinant human enzyme (dihydroorotate dehydrogenase) (Homo sapiens, UniProt Q02127); conditions: cited from earlier work
# [6] = system: All Coccidioides isolates (n = 59); experiment: microbe, parasite or virus in culture; assay type: cell-based, Coccidioides species; conditions: for MIC: read-out: GM MIC
# [7] = mouse, in vivo, po
# [8] = system: Coccidioides immitis (n = 21); experiment: microbe, parasite or virus in culture; assay type: cell-based; conditions: for MIC50 / MIC90 / MIC: Coccidioides immitis; for MIC: read-out: GM MIC
# [9] = system: dihydroorotate dehydrogenase in yeast, including Candida and Cryptococcus species; conditions: cited from earlier work
# [10] = system: Coccidioides posadasii (n = 24); experiment: microbe, parasite or virus in culture; assay type: cell-based; conditions: for MIC50 / MIC90 / MIC: Coccidioides posadasii; for MIC: read-out: GM MIC
# coccidioidomycosis = conditions: human, in vivo
# Sequence of recombinant human enzyme (dihydroorotate dehydrogenase) (Q02127 whole entry): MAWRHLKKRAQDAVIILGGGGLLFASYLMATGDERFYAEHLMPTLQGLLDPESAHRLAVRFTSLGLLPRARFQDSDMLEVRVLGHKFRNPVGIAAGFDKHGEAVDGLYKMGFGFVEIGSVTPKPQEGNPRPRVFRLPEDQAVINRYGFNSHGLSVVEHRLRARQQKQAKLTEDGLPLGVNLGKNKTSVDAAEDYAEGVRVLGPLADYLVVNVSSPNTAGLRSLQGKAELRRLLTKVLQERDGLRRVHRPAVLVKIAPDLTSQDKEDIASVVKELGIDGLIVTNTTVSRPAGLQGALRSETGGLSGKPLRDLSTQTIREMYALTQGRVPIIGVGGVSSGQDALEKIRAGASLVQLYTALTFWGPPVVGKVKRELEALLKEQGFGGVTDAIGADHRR
structure (smiles),measurement,setting,value
"OC(Cn1cncn1)(Cn1cncn1)c1ccc(F)cc1F [fluconazole, reference compound]",rebound in fungal burdens once therapy was stopped,C. immitis [1],rebound in fungal burdens
same,median survival time,C. immitis [2],30 days and 28 days
same,MIC,[3],16 µg/mL
same,brain fungal burden (mean of combined results),C. immitis [4],1.33 log 10 CFU/g
"Cc1cc(-c2ccccc2)c(C(=O)C(=O)Nc2ccc(N3CCN(c4ncc(F)cn4)CC3)cc2)n1C [olorofim, 2-(1,5-dimethyl-3-phenyl-1H-pyrrol-2-yl)-N-(4-(4-(5-fluoropyrimidin-2-yl)piperazin-1-yl)phenyl)-2-oxoacetamide]",Tmax,"in vivo; both, Plasma Tmax",≤ 1 h
same,AUC(0-t),"in vivo; female, po, 10 mg/kg",11400 ng·h/mL
same,Tmax,"in vivo; female, po, 10 mg/kg, Tmax",1 h
same,AUC(0-t),"in vivo; female, po, 20 mg/kg",26600 ng·h/mL
same,Cmax,"in vivo; female, po, 20 mg/kg",4610 ng/mL
same,AUC(0-t),"in vivo; female, po, 30 mg/kg",30800 ng·h/mL
same,Cmax,"in vivo; female, po, 30 mg/kg",4110 ng/mL
same,Tmax,"in vivo; female, po, 30 mg/kg, Tmax",1 h
same,AUC(0-t),"in vivo; male, po, 10 mg/kg",8700 ng·h/mL
same,Tmax,"in vivo; male, po, 10 mg/kg, Tmax",0.5 h
same,AUC(0-t),"in vivo; male, po, 20 mg/kg",22100 ng·h/mL
same,Cmax,"in vivo; male, po, 20 mg/kg",3910 ng/mL
same,Tmax,"in vivo; male, po, 20 mg/kg, Tmax",1 h
same,AUC(0-t),"in vivo; male, po, 30 mg/kg",27700 ng·h/mL
same,Cmax,"in vivo; male, po, 30 mg/kg",4110 ng/mL
same,Tmax,"in vivo; male, po, 30 mg/kg, Tmax",1 h
same,half-life,in vivo,~2 h
same,inhibition of dihydroorotate dehydrogenase,[5],little to no inhibition
same,mice with no fungal colonies in plated whole-brain homogenates,C. immitis [1],7 of the 10 and 7 of 10
same,MIC50,[6],≤ 0.008 µg/mL
same,MIC90,[6],0.015 µg/mL
same,MIC,[6],0.011 µg/mL
same,day on which mice began to succumb to infection,C. immitis [2],18 days
same,median survival time,C. immitis [2],22 days and 26 days and 23.5 days and > 30 days
same,percentage of mice that survived to the study endpoint,C. immitis [2],80%
same,Levels in brain compared with plasma,[7],slightly lower than those in plasma
same,Levels in lung compared with plasma,[7],slightly higher
same,exposure in females compared with males,[7],slightly higher in females
same,MIC range,[8],≤0.008 to 0.015 µg/mL
same,MIC50,[8],≤ 0.008 µg/mL
same,MIC90,[8],0.015 µg/mL
same,MIC,[8],0.009 µg/mL
same,MIC,[3],0.015 µg/mL
same,inhibition of dihydroorotate dehydrogenase,[9],little to no inhibition
same,MIC range,[10],≤0.008 to 0.015 µg/mL
same,MIC50,[10],≤ 0.008 µg/mL
same,MIC90,[10],0.015 µg/mL
same,MIC,[10],0.009 µg/mL
same,clinical status at 3 months,coccidioidomycosis,no longer required the use of oxygen and was able to walk unaided
same,clinical status at 6 months,coccidioidomycosis,continues to be asymptomatic 6 months after initiation of olorofim therapy
same,symptomatic response,coccidioidomycosis,symptomatic improvements within a few weeks; also recorded: symptomatic improvement within three weeks
same,time to symptomatic improvement,coccidioidomycosis,≤ 4 weeks
same,brain fungal burden (mean CFU count),C. immitis [4],4.36 log 10 CFU/g and 3.41 log 10 CFU/g
same,"fungal burdens, three times daily compared to twice daily administration",C. immitis [4],further reductions in fungal burdens
"C[C@@H](c1ncncc1F)[C@](O)(Cn1cncn1)c1ccc(F)cc1F [voriconazole, reference compound]",MIC50,[6],0.125 µg/mL
same,MIC90,[6],0.25 µg/mL
same,MIC,[6],0.113 µg/mL
same,MIC range,[8],≤0.03 to 0.25 µg/mL
same,MIC50,[8],0.06 µg/mL
same,MIC90,[8],0.125 µg/mL
same,MIC,[8],0.072 µg/mL
same,MIC,[3],0.125 µg/mL
same,MIC range,[10],≤0.03 to 0.25 µg/mL
same,MIC50,[10],0.125 µg/mL
same,MIC90,[10],0.125 µg/mL
same,MIC,[10],0.103 µg/mL
